Measurements as given in US9096835B2, “DNA polymerase” (Medical Research Council, priority 2003, dated 2015).

Legend:
Assay type in all cases: biochemical
[1] = Incorporation and extension of 5-nitroindole-5′-triphosphate; details: 50° C., identical conditions as 4D11 and 5D4; data not shown
Procedure: (§1) 50 pmol of ^32P-labelled primer and 100 pmol of template in a volume of 44 μl were annealed in 1× Taq buffer. 4D11 or 5D4 polymerase as cell lysate (6 μl) was added and reactions were incubated at 50° C. for 15 minutes followed by addition of d5NITP (1 μl in total volume of 50 µL final dNTP concentration 40 μM). 8 μl samples were taken at various time points and added to 8 μl stop solution (7M urea, 100 mM EDTA containing xylene cyanol F). At the end of the time course the 4 native dNTPs were added (final concentration each dNTP 40 μM) and reactions incubated at 50° C. for a further 30 minutes.

[2] = system: template containing 5-Nitroindole; assay: Primer extension opposite 5-nitroindole; details: 50° C., cell lysate, identical conditions as 4D11 and 5D4; data not shown
Procedure: as §1, with “one dNTP” for “d5NITP”, “μl,” for “µL”, “remaining 3” for “4 native”, “minutes. Reaction samples were electrophoretically separated using 20% polyacrylamide gels at 25 W for 4 hours. The resultant gels were dried and scanned using a phosphorimager (Molecular Dynamics). Data was processed using the program ImageQuant (Molecular Dynamics).” for “minutes.”

phage λ DNA template = assay: Long PCR; details: standard PCR conditions, no auxiliary polymerases or processivity factors
Procedure: A PCR assay was used to screen and rank clones. Briefly, clones were normalized for activity in PCR with matched primers 3, 4 and activity with mismatched primers 1 and 2 (1 μM each) determined at minimal cycle number (15-25 cycles). Extension capability for different mismatches was determined by the same assay using mismatch primers 2 (C•C mismatch), 5 (A•A mismatch), 6 (G•G mismatch), 7 (G•A mismatch) with matched primer 3 or primer 1 (A•G mismatch) with matched primer 4. Incorporation of unnatural substrates in 50 cycle PCR was carried out using standard conditions and 50 μM […] dNTPs (Promega) or 50 μM FITC-12-dATP (Perkin-Elmer), Rhodamine-5-dUTP (Perkin-Elmer) or Biotin-16-dUTP (Roche) with equivalent amounts of the other 3 dNTPs (all 50 μM). Long PCR was carried out using a two-step cycling protocol as described (22) 94° C. for 2 minutes, followed by 20 cycles of (94° C. 15 sec, 68° C. 30 min) using 5 ng of phage λ DNA (New England Biolabs) template and either primers 9, 10, 11 with primer 12 or primer 13 with primers 10, 14.

[3] = Catalytic efficiency kcat/Km
four mismatch primers = assay: PCR screen of clones with four mismatch primers; details: 292 base pair product, 50 cycles of PCR
Procedure: The resultant clones from both CSR and CST were screened and ranked by PCR assay. Briefly, 2 μl of induced cells were added to 20 μl of PCR mix with the relevant 4 mismatch primers. Clones that produced a band were then subjected to further analysis and their activity on single, double and quadruple mismatch primers (single mismatch primers: 5′-CAGGAAACAGCTATGACAAAAATCTAGATAACGAGGGA-3′ (SEQ ID NO: 48) and 5′-GTAAAACGACGGCCAGTACCACCGAACTGCGGGTGACGCCAAGCC 3′ (SEQ ID NO: 49); double mismatch primers: CAGGAAACAGCTATGACTCGACAAAAATCTAGATAACGACC (SEQ ID NO: 50) and GTAAAACGACGGCCAGTTTATTAACCACCGAACTGC (SEQ ID NO: 51); four mismatch primers above.) was investigated. Polymerases that could extend all of these mismatches were found, though many polymerases could do only one of the mismatches and […].
The best first and second round clones were shuffled as described above and subjected to another round of CSR. The same two sets of mismatch primers with four mismatches at their 3′ end were used in the emulsion as two separate sources of selective pressure. This was then dealt with as above and the resultant clones were screened and ranked by PCR assay (as above). Once again, polymerases that could extend all of these mismatches were found. In particular, clones 3B5.

Q: With “wtTaq: Thermus aquaticus (Taq) wild type DNA polymerase [reference compound]” as the molecule, how does the “incorporation and extension of d5NITP” value [1] read?
A: Its value is “almost undetectable extension reactions”.

Q: What about the “extension opposite 5-nitroindole” value [2] of the same molecule?
A: Its value is “almost undetectable extension reactions”.

Q: And the “size of targets amplified in long PCR” value (phage λ DNA template)?
A: The value was ≤ 9 kb.

Q: And the “size of targets amplified in long PCR” value (phage λ DNA template; listed as WtTaq)?
A: Its value is ≤ 8.8 kb.

B1: M1: Taq mutant G84A, D144G, K314R, E520G, F598L, A608V, E742G; SEQ ID NO: 1 (protein)
chain: MRGMLPLFEPKGRVLLVDGHHLAYRTFHALKGLTTSRGEPVQAVYGFAKSLLKALKEDGDAVIVVFDAKAPSFRHEAYGGYKAARAPTPEDFPRQLALIKELVDLLGLARLEVPGYEADDVLASLAKKAEKEGYEVRILTADKGLYQLLSDRIHVLHPEGYLITPAWLWEKYGLRPDQWADYRALTGDESDNLPGVKGIGEKTARKLLEEWGSLEALLKNLDRLKPAIREKILAHMDDLKLSWDLAKVRTDLPLEVDFAKRREPDRERLRAFLERLEFGSLLHEFGLLESPKALEEAPWPPPEGAFVGFVLSRREPMWADLLALAAAAGGRVHRAPEPYKALRDLKEARGLLAKDLSVLALREGLGLPPGDDPMLLAYLLDPSNTTPEGVARRYGGEWTEEAGERAALSERLFANLWGRLEGEERLLWLYREVERPLSAVLAHMEATGVRLDVAYLRALSLEVAEEIARLEAEVFRLAGHPFNLNSRDQLERVLFDELGLPAIGKTEKTGKRSTSAAVLGALREAHPIVEKILQYRELTKLKSTYIDPLPDLIHPRTGRLHTRFNQTATATGRLSSSDPNLQNIPVRTPLGQRIRRAFIAEEGWLLVVLDYSQIELRVLAHLSGDENLIRVFQEGRDIHTETASWMFGVPREAVDPLMRRAAKTINFGVLYGMSAHRLSQELAIPYEEAQAFIERYFQSFPKVRAWIEKTLEEGRRRGYVETLFGRRRYVPDLEARVKSVRGAAERMAFNMPVQGTAADLMKLAMVKLFPRLEEMGARMLLQVHDELVLEAPKERAEAVARLAKEVMEGVYPLAVPLEVEVGIGEDWLSAKE
modifications: Mutant Thermus aquaticus DNA polymerase
Q: Which “kcat/Km relative to Taq wild type” value [3] does the source give for B1 here?
A: Its value is 14%.

B2: 3D1: third round clone, four mismatch extension; SEQ ID NO: 98 (protein)
chain: MAMLPLFEPKGRVLLVDGHHLAYRTFFALKGPTTSRGEPVQVVYGFAKSLLKALKEDGYKAVFVVFDAKAPSFRHKAYEAYRAGRAPTPEDFPRQLALIKELVDLLGFTRLEVPGYEADDVLATLAKKAEKEGYEVRILTADRGLYQLVSDRVAVLHPEGHLITPEWLWEKYGLRPEQWVDFRALVGDPSDNLPGVKGIGEKTALKLLKEWGSLENLLKNLDRVKPENVREKIKAHLEDLRLSLELSRVRTDLPLEVDLAQRREPDREGLRAFLERLEFGSLFHEFGLLESPKALEEAPWPPPEGAFVGFVLSRKEPMWADLLALAAARGGRVHRAPEPYKALRDLKEARGLLAKDLSVLALREGLGLPPGDDPMLLAYLLDPSNTTPEGVARRYGGEWTEEAGERAALSERLFANLWGRLEGEERLLWLYREVERPLSAVLAHMEATGVRLDVAYLRALSLEVAEEIARLEAEVFRLAGHPFNLNSRDQLEMVLFDELRLPALGKTQKTGKRSTSAAVLEALREAHPIVEKILQYRELTKLKSTYIDPLSDLIHPRTGRLHTRFNQTATATGRLSSSDPNLQNIPVRTPLGQRIRRAFIAEEGWLLVVLDYSQIELRVLAHLSGDENLIRVFQEGRDIHTETASWMFGVPREAVDPLMRRAAKTINFGVLYGMSAHRLSQELAIPYEEAQAFIERYFQSFPKVRAWIEKTLEEGRRRGYVETLFGRRRYVPDLEARVKSVREAAERMAFNMPVQGTAADLMKLAMVKLFPRLGETGARMLLQVHDELVLEAPKERAEAVARLAKEAMEGVYPLAVPLEVEVGIGEDWLSAKG
modifications: Mutant Taq polymerase
Q: For B2, which “extension of primers containing four mismatches in PCR” value (shortened to “extension … in PCR”) (four mismatch primers) is on record?
A: The value was “able to extend primers containing four mismatches”.

Q: What about the “extension … in PCR” value (four mismatch primers; listed as D1) of the same molecule?
A: The value was “can also extend four mismatched primers in PCR”.

B3: 3A10: third round clone, abasic site bypass; SEQ ID NO: 86 (protein)
chain: MAMLPLFEPKGRVLLVDGHHLAYRTFFALKGLTTSRGEPVQVVYGFAKSLLKALKEDGYKAVFVVFDAKAPSFRHKAYEAYRAGRAPTPQDFPRQLALIKELVDLLGFTRLEVPGYEADDVLATLAKKAEKEGYEVRILTADRGLYQLVSDRVAVLHPEGHLITPEWLWEKYGLRPEQWVDFRALVGDPSDNLPGVKGIGEKTALKLLKEWGSLENLLKNLDRVKPENVREKIKAHLEDLRLSLELSRVRTDLPLEVDLAQGREPDREGLRAFLERLEFGSLLHEFGLLESPKALEEAPWPPPEGAFVGFVLSRKEPMWADLLALAAARGGRVHQAPEPYKALRDLKEARGLLAKDLSVLALREGLGLPPGDDPMLLAYLLDPSNTTPEGVARRYGGEWTEEAGERAALSERLFANLWGRLEGEERLLWLYREVERPLSAVLAHMETTGVRLDVAYLRALSLEVAEEIARLEAEVFRLAGRPFNLNSRDQLERVLFDELGLPAIGKTEKTGKRSTSAAVLEALREAHPIVEKILQYRELTKLKSTYIDPLPDLIHPRTGRLHTRFNQTATATGRLSSSDPNLQNIPVRTPLGQRIRRAFIAEEGWLLVVLDYSQMELRVLAHLSGDENLIRVFQEGKDIHTQTASWMFGVPPEAVDPLMRRAAKTVNFGVLYGMSAHRLSQELSIPYEEAVAFIERYFQSFPKVRAWIEKTLEEGRRRGYVETLFGRRRYVPDLNARMKSVRGAAERMAFNMPVQGTAADLMKLAMVKLFPRLREMGARMLLQVHDELLLEAPQARAEEVAALAKEAMEKAYPLAVPLEVEVGIGEDWLSAKE
modifications: Mutant Taq polymerase
Q: For B3, which “extension … in PCR” value (four mismatch primers) is on record?
A: The value was “cannot”.
